From patent publication US6706740B2, “Fungicidal heterocyclic aromatic amides and their compositions, methods of use and preparation” (Dow AgroSciences LLC, priority 1999, dated 2004)

What follows are molecules tested on Magnaporthe grisea (Pyricularia oryzae—PYRIOR) (assay: microbe, parasite or virus in culture). Conditions: Pyricularia oryzae, read-out: PYRIOR in vitro Growth Inhibition.
Format: cell-based
`COc1ccccc1Oc1cccc(NC(=O)c2nccc(OC)c2O)c1` [Compound 430] was tested, and the inhibition at 25 ppm was less than 80%.
`COC(=O)C(COC(=O)COCc1ccccc1)NC(=O)c1nccc(OC)c1OC(C)=O` (centres unmarked) [Compound 585] showed an inhibition at 25 ppm of less than 80%.
In the case of `COc1ccnc(C(=O)N[C@@H]2OC[C@@H](OC(C)=O)[C@H](OC(C)=O)[C@H]2OC(C)=O)c1O` [Compound 330], the inhibition at 25 ppm is reported as less than 80%.
`CSc1ccnc(C(=O)NC2CC(C)(C)CC(C)(C)C2)c1O` [Compound 477] was tested, and the inhibition at 25 ppm was less than 80%.

The molecules below were run on Phytophthora infestans (PHYTIN) (assay: microbe, parasite or virus in culture). Conditions: Phytophthora infestans, read-out: PHYTIN in vitro Growth Inhibition.
Format: cell-based
In the case of `COc1ccccc1Oc1cccc(NC(=O)c2nccc(OC)c2O)c1` [Compound 430], the inhibition at 25 ppm is reported as less than 80%.
`COC(=O)C(COC(=O)COCc1ccccc1)NC(=O)c1nccc(OC)c1OC(C)=O` (centres unmarked) [Compound 585] gave an inhibition at 25 ppm of less than 80%.
With `COc1ccnc(C(=O)N[C@@H]2OC[C@@H](OC(C)=O)[C@H](OC(C)=O)[C@H]2OC(C)=O)c1O` [Compound 330] the inhibition at 25 ppm was less than 80%.
`CSc1ccnc(C(=O)NC2CC(C)(C)CC(C)(C)C2)c1O` [Compound 477] gave an inhibition at 25 ppm of less than 80%.

What follows are molecules tested on Mycosphaerella graminicola (Septoria tritici—SEPTTR) (assay: In vitro fungal growth inhibition, Mycosphaerella graminicola (SEPTTR)). Conditions: Zymoseptoria tritici; 25 ppm in growth medium; read-out: SEPTTR in vitro Growth Inhibition.
Format: cell-based
`COc1ccccc1Oc1cccc(NC(=O)c2nccc(OC)c2O)c1` [Compound 430] gave an inhibition at 25 ppm of less than 80%.
With `COc1ccnc(C(=O)N[C@@H]2OC[C@@H](OC(C)=O)[C@H](OC(C)=O)[C@H]2OC(C)=O)c1O` [Compound 330] the inhibition at 25 ppm was less than 80%.

Same assay, conditions: Zymoseptoria tritici; 25 ppm in the growth medium; read-out: SEPTTR in vitro Growth Inhibition
`COC(=O)C(COC(=O)COCc1ccccc1)NC(=O)c1nccc(OC)c1OC(C)=O` (centres unmarked) [Compound 585] was tested, and the inhibition at 25 ppm was less than 80%.
In the case of `CSc1ccnc(C(=O)NC2CC(C)(C)CC(C)(C)C2)c1O` [Compound 477], the inhibition at 25 ppm is reported as less than 80%.

The molecules below were run on Puccinia recondita—PUCCRT (assay: Brown Rust of Wheat, in vivo whole plant, 24 Hour Protectant). Conditions: Puccinia; 100 ppm spray, wheat, 24 hour protectant; control of fungal infection vs untreated plants; read-out: PUCCRT in vivo 1 Day Protectant.
`COc1ccccc1Oc1cccc(NC(=O)c2nccc(OC)c2O)c1` [Compound 430] gave a pest or weed control at 100 ppm of less than 25%.
`COc1ccnc(C(=O)N[C@@H]2OC[C@@H](OC(C)=O)[C@H](OC(C)=O)[C@H]2OC(C)=O)c1O` [Compound 330] showed a pest or weed control at 100 ppm of less than 25%.

Same assay, conditions: Puccinia; wheat plants sprayed at 100 ppm, inoculated after 24 hours; control of fungal infection vs untreated plants; read-out: PUCCRT in vivo 1 Day Protectant
`COC(=O)C(COC(=O)COCc1ccccc1)NC(=O)c1nccc(OC)c1OC(C)=O` (centres unmarked) [Compound 585] gave a pest or weed control at 100 ppm of 25 to 74%.
With `CSc1ccnc(C(=O)NC2CC(C)(C)CC(C)(C)C2)c1O` [Compound 477] the pest or weed control at 100 ppm was less than 25%.

What follows are molecules tested on Phytophthora infestans—PHYTIN (assay: whole plant or invertebrate). Conditions: Phytophthora, in Solanum lycopersicum, 24 h, read-out: PHYTIN in vivo 1 Day Protectant.
Format: in vivo
In the case of `COc1ccccc1Oc1cccc(NC(=O)c2nccc(OC)c2O)c1` [Compound 430], the pest or weed control at 100 ppm is reported as 25 to 74%.
Work on `COC(=O)C(COC(=O)COCc1ccccc1)NC(=O)c1nccc(OC)c1OC(C)=O` (centres unmarked) [Compound 585] yielded a pest or weed control at 100 ppm of less than 25%.
In the case of `COc1ccnc(C(=O)N[C@@H]2OC[C@@H](OC(C)=O)[C@H](OC(C)=O)[C@H]2OC(C)=O)c1O` [Compound 330], the pest or weed control at 100 ppm is reported as less than 25%.
For `CSc1ccnc(C(=O)NC2CC(C)(C)CC(C)(C)C2)c1O` [Compound 477], the pest or weed control at 100 ppm was less than 25%.

These molecules were tested on Erysiphe graminis—ERYSGT (assay: Powdery Mildew of Wheat, in vivo whole plant, 24 Hour Protectant). Conditions: Erysiphe; 100 ppm spray, wheat, 24 hour protectant; control of fungal infection vs untreated plants; read-out: ERYSGT in vivo 1 Day Protectant.
Molecule `COc1ccccc1Oc1cccc(NC(=O)c2nccc(OC)c2O)c1` [Compound 430] has a pest or weed control at 100 ppm of less than 25%.
For `COc1ccnc(C(=O)N[C@@H]2OC[C@@H](OC(C)=O)[C@H](OC(C)=O)[C@H]2OC(C)=O)c1O` [Compound 330], the pest or weed control at 100 ppm was less than 25%.

Same assay, conditions: Erysiphe; wheat plants sprayed at 100 ppm, inoculated after 24 hours; control of fungal infection vs untreated plants; read-out: ERYSGT in vivo 1 Day Protectant
In the case of `COC(=O)C(COC(=O)COCc1ccccc1)NC(=O)c1nccc(OC)c1OC(C)=O` (centres unmarked) [Compound 585], the pest or weed control at 100 ppm is reported as less than 25%.
`CSc1ccnc(C(=O)NC2CC(C)(C)CC(C)(C)C2)c1O` [Compound 477] gave a pest or weed control at 100 ppm of less than 25%.

Each molecule was assayed on Ustilago maydis (USTIMA) (assay: microbe, parasite or virus in culture). Conditions: Mycosarcoma maydis, read-out: USTIMA in vitro Growth Inhibition.
Format: cell-based
In the case of `COc1ccccc1Oc1cccc(NC(=O)c2nccc(OC)c2O)c1` [Compound 430], the inhibition at 25 ppm is reported as less than 80%.
For `COC(=O)C(COC(=O)COCc1ccccc1)NC(=O)c1nccc(OC)c1OC(C)=O` (centres unmarked) [Compound 585], the inhibition at 25 ppm was less than 80%.
`COc1ccnc(C(=O)N[C@@H]2OC[C@@H](OC(C)=O)[C@H](OC(C)=O)[C@H]2OC(C)=O)c1O` [Compound 330] showed an inhibition at 25 ppm of less than 80%.
Molecule `CSc1ccnc(C(=O)NC2CC(C)(C)CC(C)(C)C2)c1O` [Compound 477] has an inhibition at 25 ppm of less than 80%.

Each molecule was assayed on Leptosphaeria nodorum—LEPTNO (assay: Glume Blotch of Wheat, in vivo whole plant, 24 Hour Protectant). Conditions: Leptosphaeria; 100 ppm spray, wheat, 24 hour protectant; control of fungal infection vs untreated plants; read-out: LEPTNO in vivo 1 Day Protectant.
In the case of `COc1ccccc1Oc1cccc(NC(=O)c2nccc(OC)c2O)c1` [Compound 430], the pest or weed control at 100 ppm is reported as less than 25%.
Work on `COc1ccnc(C(=O)N[C@@H]2OC[C@@H](OC(C)=O)[C@H](OC(C)=O)[C@H]2OC(C)=O)c1O` [Compound 330] yielded a pest or weed control at 100 ppm of less than 25%.

Same assay, conditions: Leptosphaeria; wheat plants sprayed at 100 ppm, inoculated after 24 hours; control of fungal infection vs untreated plants; read-out: LEPTNO in vivo 1 Day Protectant
`COC(=O)C(COC(=O)COCc1ccccc1)NC(=O)c1nccc(OC)c1OC(C)=O` (centres unmarked) [Compound 585] was tested, and the pest or weed control at 100 ppm was 25 to 74%.
`CSc1ccnc(C(=O)NC2CC(C)(C)CC(C)(C)C2)c1O` [Compound 477] showed a pest or weed control at 100 ppm of 25 to 74%.

Each molecule was assayed on Septoria tritici—SEPTTR (assay: Leaf Blotch of Wheat, in vivo whole plant, 24 Hour Protectant). Conditions: Zymoseptoria tritici, 24 h, 100 ppm spray, wheat, 24 hour protectant; control of fungal infection vs untreated plants; read-out: SEPTTR in vivo 1 Day Protectant.
Molecule `COc1ccccc1Oc1cccc(NC(=O)c2nccc(OC)c2O)c1` [Compound 430] has a pest or weed control at 100 ppm of less than 25%.
Work on `COc1ccnc(C(=O)N[C@@H]2OC[C@@H](OC(C)=O)[C@H](OC(C)=O)[C@H]2OC(C)=O)c1O` [Compound 330] yielded a pest or weed control at 100 ppm of less than 25%.

Same assay, conditions: Zymoseptoria tritici, 24 h, wheat plants sprayed at 100 ppm, inoculated after 24 hours; control of fungal infection vs untreated plants; read-out: SEPTTR in vivo 1 Day Protectant
For `COC(=O)C(COC(=O)COCc1ccccc1)NC(=O)c1nccc(OC)c1OC(C)=O` (centres unmarked) [Compound 585], the pest or weed control at 100 ppm was 25 to 74%.
In the case of `CSc1ccnc(C(=O)NC2CC(C)(C)CC(C)(C)C2)c1O` [Compound 477], the pest or weed control at 100 ppm is reported as 25 to 74%.

These molecules were tested on Rhizoctonia solani (RHIZSO) (assay: microbe, parasite or virus in culture). Conditions: Rhizoctonia solani, read-out: RHIZSO in vitro Growth Inhibition.
Format: cell-based
Molecule `COc1ccccc1Oc1cccc(NC(=O)c2nccc(OC)c2O)c1` [Compound 430] has an inhibition at 25 ppm of less than 80%.
`COC(=O)C(COC(=O)COCc1ccccc1)NC(=O)c1nccc(OC)c1OC(C)=O` (centres unmarked) [Compound 585] showed an inhibition at 25 ppm of less than 80%.
`COc1ccnc(C(=O)N[C@@H]2OC[C@@H](OC(C)=O)[C@H](OC(C)=O)[C@H]2OC(C)=O)c1O` [Compound 330] gave an inhibition at 25 ppm of less than 80%.
Work on `CSc1ccnc(C(=O)NC2CC(C)(C)CC(C)(C)C2)c1O` [Compound 477] yielded an inhibition at 25 ppm of less than 80%.

Each molecule was assayed on Stagonospora nodorum (Leptosphaeria nodorum—LEPTNO) (assay: In vitro fungal growth inhibition, Stagonospora nodorum (LEPTNO)). Conditions: Leptosphaeria; 25 ppm in growth medium; read-out: LEPTNO in vitro Growth Inhibition.
Format: cell-based
With `COc1ccccc1Oc1cccc(NC(=O)c2nccc(OC)c2O)c1` [Compound 430] the inhibition at 25 ppm was less than 80%.
`COc1ccnc(C(=O)N[C@@H]2OC[C@@H](OC(C)=O)[C@H](OC(C)=O)[C@H]2OC(C)=O)c1O` [Compound 330] showed an inhibition at 25 ppm of less than 80%.

Same assay, conditions: Leptosphaeria; 25 ppm in the growth medium; read-out: LEPTNO in vitro Growth Inhibition
Molecule `COC(=O)C(COC(=O)COCc1ccccc1)NC(=O)c1nccc(OC)c1OC(C)=O` (centres unmarked) [Compound 585] has an inhibition at 25 ppm of less than 80%.
Molecule `CSc1ccnc(C(=O)NC2CC(C)(C)CC(C)(C)C2)c1O` [Compound 477] has an inhibition at 25 ppm of less than 80%.
